A short description of experiment [1]: In vitro cytotoxic activity was evaluated by microtubule assembly assay relative to taxol; ED50/ED50. It is filed as functional.
A further experiment concerns B16. Nature of the experiment: In vitro cytotoxic activity was evaluated against B16 melanoma cells relative to taxol; ED50/ED50. It is filed as functional.

As to `CC(=O)O[C@H]1C(=O)[C@@]2(C)C([C@H](OC(=O)C3CCCCC3)[C@]3(O)C[C@H](OC(=O)[C@H](O)C(NC(=O)C4CCCCC4)C4CCCCC4)C(C)=C1C3(C)C)[C@]1(OC(C)=O)CO[C@@H]1C[C@@H]2O` (some centres not stated), the Ratio amounted to 0.47 in experiment [1] and 1.6 in the experiment with B16.
For `CC(=O)O[C@H]1C(=O)[C@@]2(C)C([C@H](OC(=O)c3ccccc3)[C@]3(O)C[C@H](OC(=O)[C@H](O)C(NC(=O)c4ccccc4)C4CCCCC4)C(C)=C1C3(C)C)[C@]1(OC(C)=O)CO[C@@H]1C[C@@H]2O` (some centres not stated) the same measures were 0.29 and 0.91.
For `CC(=O)O[C@H]1C(=O)[C@@]2(C)C([C@H](OC(=O)c3ccccc3)[C@]3(O)C[C@H](OC(=O)[C@H](O)C(NC(=O)OC(C)(C)C)c4ccccc4)C(C)=C1C3(C)C)[C@]1(OC(C)=O)CO[C@@H]1C[C@@H]2O` (some centres not stated) the same measures were 0.55 and 0.23.
For `CC(=O)O[C@H]1C(=O)[C@@]2(C)C([C@H](OC(=O)C3CCCCC3)[C@]3(O)C[C@H](OC(=O)[C@H](O)C(NC(=O)OC(C)(C)C)c4ccccc4)C(C)=C1C3(C)C)[C@]1(OC(C)=O)CO[C@@H]1C[C@@H]2O` (some centres not stated) the same measures were 0.67 and 1.1.
As for `CC(=O)O[C@@]12CO[C@@H]1C[C@H](O)[C@@]1(C)C(=O)[C@H](O)C3=C(C)[C@@H](OC(=O)[C@H](O)[C@@H](NC(=O)OC(C)(C)C)c4ccccc4)C[C@@](O)([C@@H](OC(=O)c4ccccc4)[C@H]21)C3(C)C.O.O.O` [DOCETAXEL], the results for the Ratio (in experiment [1]; in the experiment with B16) were 0.45 and 0.41, respectively.
The matching figures for `CC(=O)O[C@H]1C(=O)[C@@]2(C)[C@H]([C@H](OC(=O)c3ccccc3)[C@]3(O)C[C@H](OC(=O)[C@H](O)[C@@H](NC(=O)c4ccccc4)c4ccccc4)C(C)=C1C3(C)C)[C@]1(OC(C)=O)CO[C@@H]1C[C@@H]2O` [PACLITAXEL]: 1 and 1.

Source of the values: ChEMBL document CHEMBL1127747, “The effect of the aromatic rings of taxol on biological activity and solution conformation: synthesis and evaluation of saturated taxol and taxotere analogues” (1994).
